The values that follow come from patent US5747493A, “Dopamine re-uptake inhibitor” (Pola Chemical Industries, Inc., priority 1993, dated 1998).

One test relates to Wistar rats (male). In words: quantity of spontaneous movement. The class given is in vivo. Conditions: intraperitoneal, 3 hours; for Number of times of rising: control 2; for Number of times of traversing: control 20. The text has this: Determination of quantity of spontaneous movement
Wistar rats (male) aged 7 weeks were used to confirm the effect of Compound 1 on spontaneous movement. […] The number of times of traversing sections of a floor and the number of times of rising were used as indices of the quantity of movement. The test agent was used in doses of from 0.1 mmol/kg down to 0.01 mmol/kg. Besides, physiological saline alone was used as a control.

For a further test, the system named is [^3 H]-DA re-uptake. In words: inhibition of [^3 H]-DA re-uptake in corpus striatum homogenate. The test is classed as biochemical, Sprague-Dawley rats. Conditions: for amount of DA re-uptake: 2 min. On the procedure:
Investigation as to inhibition of [^3 H]-DA re-uptake
Corpus striatum samples of Sprague-Dawley rats (SD rats) were used to investigate the inhibition of [^3 H]-DA re-uptake.
More specifically, after an SD rat (aged 8 weeks, male) was decapitated, its corpus striatum was taken out while keeping on ice. A Krebs-Henseleit buffer in an amount ten times of the corpus striatum was added thereto to homogenize the resultant mixture by means of a Teflon homogenizer, thereby obtaining a homogenate. To this homogenate, were added nialamide as a monoamine oxidase inhibitor, ascorbic acid as an antioxidant and a test agent to preincubate the resulting mixture at 37° C. for 5 minutes. […] After the reaction mixture was filtered by means of a cell harvester in which a filter had been set, the filter was washed twice with physiological saline. The washed filter was placed in a vial, and 10 ml of Aquazol-2 were added to leave the filter to stand overnight. Thereafter, the radioactivity of the sample was measured by a liquid scintillation counter.
Compound 1 according to the present invention was used as a test agent. The test agent was prepared into a 10^-2 M solution in dimethyl sulfoxide, and the solution was diluted with a Krebs-Henseleit buffer before its use. With the concentrations of the test substances, 11 points were selected within a range of from 10^-10 M to 10^-5 M to plot the concentration versus the amount of DA re-uptake. From this plot, an IC50 value was determined.

Structures are written as SMILES. Structures can show the parent of a compound that is named as a salt.

As a reminder, the IC50 is the concentration needed to halve the response being measured. `OC(CNc1ccccc1)CN1CCN(CCCC(c2ccc(F)cc2)c2ccc(F)cc2)CC1` (stereo not drawn) [Compound 1, 1-[4,4-Bis(4-fluorophenyl)-butyl]-4-(2-hydroxy-3-phenyl-aminopropyl)piperazinedihydrochloride]: the “Number of times of rising” value in the test on Wistar rats (male) (0.01 mmol/kg) was 69 times; with Wistar rats (male) (0.03 mmol/kg) it was 156 times; with Wistar rats (male) (0.1 mmol/kg), 121 times. Besides, the “Number of times of traversing” value with Wistar rats (male) (0.01 mmol/kg) was found to be 253 times; with Wistar rats (male) (0.03 mmol/kg), 267 times; in the test on Wistar rats (male) (0.1 mmol/kg), 287 times. Moreover, in the test with Wistar rats (male) (0.01 to 0.1 mmol/kg, hydrochloride), the “quantity of spontaneous movement (in words)” value is listed as “enhances the quantity of the spontaneous movement to a marked extent”. The IC50 in test [^3 H]-DA re-uptake (SD rat corpus striatum homogenate, 37° C., 2 minutes reaction) was found to be 6.79 nM. Also, the “amount of DA re-uptake” value in test [^3 H]-DA re-uptake (concentration of test substance -log (mol) 6, 1 µM) turned out to be 0%; in test [^3 H]-DA re-uptake (concentration of test substance -log (mol) 6.5, 0.316 µM), 0%; in test [^3 H]-DA re-uptake (concentration of test substance -log (mol) 7, 0.1 µM), 2%; in test [^3 H]-DA re-uptake (concentration of test substance -log (mol) 8, 0.01 µM), 38%; in test [^3 H]-DA re-uptake (concentration of test substance -log (mol) 9, 0.001 µM), 80%; in test [^3 H]-DA re-uptake (concentration of test substance -log (mol) 10, 0.0001 µM), 92%. In addition, the “inhibition of DA re-uptake (in words)” value in test [^3 H]-DA re-uptake (conclusion from IC50 and Table 3) is listed as “potent activities of inhibiting DA re-uptake”.
